In article PMC10602174, “Simultaneous Inhibition of PI3K and PAK in Preclinical Models of Neurofibromatosis Type 2-related Schwannomatosis” (Research Square, 2023):
Blank lines part the entries; values can stand above or below the compound they belong to.

Tests used:
HS01 cells = assay: Incucyte live cell imaging, confluence and cleaved caspase 3/7; format: cell-based, human; conditions: HS01, 72h time course
Protocol: (§1) Human HS11, HS01, HS02, HS13 and HS05 and mouse MTC-10 cells (1,000 cells/well) were seeded in growth medium in three replicate wells/condition of a 384-well CellBIND Corning plate. […] Wells were imaged using the Incucyte® S5 Live-Cell Analysis system (Sartorius) for 24–72h. Phase and green fluorescent images were collected every 2h and analyzed using the integrated basic analyzer software.

HS01 cells (human MD-SC) = assay: Cell viability (CellTiter-Fluor) and Combenefit synergy, 10x10 matrix; format: cell-based; conditions: HS01 72h, read-out: % Control cell viability; for viability at 0.03906 µM: single drug 39.06 nM; for viability at 0.07813 µM: single drug 78.13 nM; for viability at 0.15625 µM: single drug 156.25 nM; for viability at 0.3125 µM: single drug 312.5 nM; for viability at 0.625 µM: single drug 625 nM; for viability at 1.25 µM: single drug 1250 nM; for viability at 2.5 µM: single drug 2500 nM; for viability at 5 µM: single drug 5000 nM; for viability at 10 µM: single drug 10000 nM
Protocol: (§2) Drugs used in this study are listed with their targets in Table S1. All drugs were obtained from SelleckChem (Houston, TX, USA), apart from (−)-B-Hydrastine (Santa Cruz Biotechnology, Dallas, TX, USA). Drugs were dissolved in DMSO (10 mM stock). MD-SCs were seeded in 384-well CellBind Corning plates at 1000 cells/well in phenol red-free media. After attachment, cells were treated with drugs at 10 concentrations in a 10×10 matrix. Mouse cells were treated for 48h and human cells for 72h prior to assessment of cell viability with CellTiter-Fluor Assay (Promega, Madison, WI, USA). All drugs were tested in at least two human MD-SC lines. Follow up testing was performed on a subset of combinations using the mouse MD-SC line. Matrix combination data was uploaded into the Combenefit software system to assess drug synergy using three methods (Loewe, Bliss, and HSA)([18]).

HS03 cells (human MD-SC) = assay: as above; format: cell-based; conditions: HS03 72h, read-out: % Control cell viability; for viability at 0.03906 µM: single drug 39.06 nM; for viability at 0.07813 µM: single drug 78.13 nM; for viability at 0.15625 µM: single drug 156.25 nM; for viability at 0.3125 µM: single drug 312.5 nM; for viability at 0.625 µM: single drug 625 nM; for viability at 1.25 µM: single drug 1250 nM; for viability at 2.5 µM: single drug 2500 nM; for viability at 5 µM: single drug 5000 nM; for viability at 10 µM: single drug 10000 nM
Protocol: as §2

MS01 cells (mouse MD-SC) = assay: as above; format: cell-based; conditions: MS01 48h, read-out: % Control cell viability; for viability at 0.03906 µM: single drug 39.06 nM; for viability at 0.07813 µM: single drug 78.13 nM; for viability at 0.15625 µM: single drug 156.25 nM; for viability at 0.3125 µM: single drug 312.5 nM; for viability at 0.625 µM: single drug 625 nM; for viability at 1.25 µM: single drug 1250 nM; for viability at 2.5 µM: single drug 2500 nM; for viability at 5 µM: single drug 5000 nM; for viability at 10 µM: single drug 10000 nM
Protocol: as §2

[1] = Pharmacokinetic study, plasma and sciatic nerve after single oral gavage; format: in vivo, NSG mice; conditions: for Tmax: both sexes, NOD.Cg-Prkdcscid Il2rgtm1Wjl/SzJ (NSG), mouse, plasma, po, read-out: time of maximum plasma concentration; for penetration of blood-nerve barrier / detection in intact nerve: single oral gavage
From the text: The UCF animal facility is accredited by the Association for Assessment and Accreditation of Laboratory Animal Care. A total of 50 six- to eight-week-old mice were used for pharmacokinetic studies. […] Drugs were delivered via 0.5% methylcellulose, 0.2% Tween 80, 10% DMSO vehicle. Ten mice (three per drug and one control receiving vehicle alone) were used at each time point. Collected samples were frozen and sent to Cyprotex (Watertown, MA, USA) for LC-MS/MS quantitation of drug levels. Pharmacokinetic calculations were performed using the PKSolver software. The plasma half-life (t½) was calculated as the time required to reduce by half the plasma concentration after reaching pseudo-equilibrium and is not the time required to eliminate half the administered dose. An additional LC-MS/MS analyses of a subset of the treated mice (see below) was conducted. […] Three mice from each treatment group were selected randomly at the end of the in vivo study to assess the levels of drug in plasma, intact control nerve, and tumor. Samples were collected 4h after the final oral gavage, frozen, and sent to Cyprotex for analysis.

[2] = Drug levels in plasma, control nerve and tumor at end of in vivo study; design: species or system NSG mice; conditions: 4h after final oral gavage, 14 days of daily treatment
From the text: Male and female NOD.Cg-Prkdcscid Il2rgtm1Wjl/SzJ (NSG) mice were bred in house and all care and use was approved by the University of Central Florida (UCF) Institutional Animal Care and Usage Committee (IACUC; #19 – 05, approved 04/08/2019). The UCF animal facility is accredited by the Association for Assessment and Accreditation of Laboratory Animal Care. A total of 50 six- to eight-week-old mice were used for pharmacokinetic studies. […] Drugs were delivered via 0.5% methylcellulose, 0.2% Tween 80, 10% DMSO vehicle. Ten mice (three per drug and one control receiving vehicle alone) were used at each time point. Collected samples were frozen and sent to Cyprotex (Watertown, MA, USA) for LC-MS/MS quantitation of drug levels. Pharmacokinetic calculations were performed using the PKSolver software. The plasma half-life (t½) was calculated as the time required to reduce by half the plasma concentration after reaching pseudo-equilibrium and is not the time required to eliminate half the administered dose. An additional LC-MS/MS analyses of a subset of the treated mice (see below) was conducted. This was done to determine whether PF-3758309 was accessible to the tumor neo-vasculature that can differ from that of the organ/tissue housing the tumor. […]

[3] = tested on: MS01-Luc allografts (mouse MD-SCs); assay: Immunohistochemistry of allograft tumors; format: in vivo, NSG mice; conditions: tumors after 14 days of treatment, n = 4/group
[4] = tested on: human MD-SCs (HS02, HS05); conditions: human MD-SC lines, Incucyte
Protocol: as §1

mouse MD-SCs (MS01) = assay: Incucyte confluency and CC-3/7 assay; format: cell-based
HS02 cells = assay: Proteome Profiler Human Apoptosis Array; format: cell-based; conditions: HS02, pictilisib 2.5 μM 6h vs vehicle
Protocol: (§3) Human HS02 MD-SCs and mouse MTC-10 (MS01) MD-SCs cell lines were used. […] Cells were lysed and procedure was performed according to the Proteome Profiler Human or Mouse Apoptosis Array Kit (Cat No: ARY009 for Human, Cat No: ARY031 for Mouse, Biotechne, Minneapolis, MA, USA). Arrays were visualized using the Jess System (Biotechne), densitometry was measured and normalized to reference spots using ImageJ Software (NIH, Bethesda, MD, USA). Calculations were carried out using Prism 9 Software (GraphPad, Boston, MA, USA).

MS01 cells = assay: Proteome Profiler Mouse Apoptosis Array; format: cell-based; conditions: MS01, pictilisib 2.5 μM 6h vs vehicle
Protocol: as §3

glioblastoma xenografts = tested on: glioblastoma xenografts; design: method as in PMID 19584227; conditions: cited from earlier work
[5] = tested on: ovarian cancer xenografts; design: method as in PMID 19584227; conditions: cited from earlier work
[6] = tested on: patients with advanced solid tumors; conditions: phase 1, advanced solid tumors; cited from earlier work
[7] = tested on: estrogen receptor positive breast cancer patients; conditions: addition of pictilisib to fulvestrant; cited from earlier work
luminal B breast cancer = conditions: adding pictilisib to anastrozole; cited from earlier work
[8] = tested on: patients with advanced solid tumors; conditions: pictilisib combined with the MEK inhibitor cobimetinib; cited from earlier work
human MD-SCs = assay: Cell viability of MD-SC lines, monotherapy EC50 and combination synergy; format: cell-based
Protocol: as §2

Compound: COc1ccc(-c2nc(N3CCOCC3)c3sc(CN(C)c4ncc(C(=O)NO)cn4)cc3n2)cn1 [CUDC907]
cleaved caspase 3/7 (CC3/7) signal (HS01 cells): high CC-3/7 signal starting at 14h

Compound: Cc1nc(Nc2n[nH]c3c2CN(C(=O)N[C@H](CN(C)C)c2ccccc2)C3(C)C)c2sccc2n1 [PF-3758309]
viability at 0.03906 µM (HS01 cells (human MD-SC)): 71% | viability at 0.07813 µM (HS01 cells (human MD-SC)): 66% | viability at 0.15625 µM (HS01 cells (human MD-SC)): 67% | viability at 0.3125 µM (HS01 cells (human MD-SC)): 65% | viability at 0.625 µM (HS01 cells (human MD-SC)): 65% | viability at 1.25 µM (HS01 cells (human MD-SC)): 67% | viability at 2.5 µM (HS01 cells (human MD-SC)): 59% | viability at 5 µM (HS01 cells (human MD-SC)): 40% | viability at 10 µM (HS01 cells (human MD-SC)): 21% | viability at 0.03906 µM (HS03 cells (human MD-SC)): 72% | viability at 0.07813 µM (HS03 cells (human MD-SC)): 67% | viability at 0.15625 µM (HS03 cells (human MD-SC)): 63% | viability at 0.3125 µM (HS03 cells (human MD-SC)): 64% | viability at 0.625 µM (HS03 cells (human MD-SC)): 62% | viability at 1.25 µM (HS03 cells (human MD-SC)): 59% | viability at 2.5 µM (HS03 cells (human MD-SC)): 56% | viability at 5 µM (HS03 cells (human MD-SC)): 44% | viability at 10 µM (HS03 cells (human MD-SC)): 23% | viability at 0.03906 µM (MS01 cells (mouse MD-SC)): 61% | viability at 0.07813 µM (MS01 cells (mouse MD-SC)): 57% | viability at 0.15625 µM (MS01 cells (mouse MD-SC)): 50% | viability at 0.3125 µM (MS01 cells (mouse MD-SC)): 48% | viability at 0.625 µM (MS01 cells (mouse MD-SC)): 43% | viability at 1.25 µM (MS01 cells (mouse MD-SC)): 40% | viability at 2.5 µM (MS01 cells (mouse MD-SC)): 35% | viability at 5 µM (MS01 cells (mouse MD-SC)): 24% | viability at 10 µM (MS01 cells (mouse MD-SC)): 7% | half-life in plasma, together with pictilisib versus alone ([1]; PF-3758309 25 mg/kg oral): similar | maximum concentration in plasma ([1]; PF-3758309 25 mg/kg oral, alone): 110 ng/mL | maximum concentration in plasma ([1]; PF-3758309 25 mg/kg oral, co-administered with pictilisib 75 mg/kg): 341 ng/mL | Tmax [1]: 2 h | detection in normal nerve ([1]; co-administered with pictilisib): remained undetected in normal nerve | penetration of blood-nerve barrier / detection in intact nerve ([1]; single agent): not detected in the intact nerve | drug in tumor [2]: bioavailable in the tumor | Ki67 staining (cell proliferation) [3]: significantly decreased cell proliferation | YAP staining reduction [3]: statistically significant

Tmax [1]: 1 h | time of maximum nerve concentration ([1]; single agent, single oral gavage 75 mg/kg): 1 h
Compound: CS(=O)(=O)N1CCN(Cc2cc3nc(-c4cccc5[nH]ncc45)nc(N4CCOCC4)c3s2)CC1 [Pictilisib]
viability at 0.03906 µM (HS01 cells (human MD-SC)): 88% | viability at 0.07813 µM (HS01 cells (human MD-SC)): 85% | viability at 0.15625 µM (HS01 cells (human MD-SC)): 78% | viability at 0.3125 µM (HS01 cells (human MD-SC)): 72% | viability at 0.625 µM (HS01 cells (human MD-SC)): 72% | viability at 1.25 µM (HS01 cells (human MD-SC)): 66% | viability at 2.5 µM (HS01 cells (human MD-SC)): 66% | viability at 5 µM (HS01 cells (human MD-SC)): 64% | viability at 10 µM (HS01 cells (human MD-SC)): 65% | viability at 0.03906 µM (HS03 cells (human MD-SC)): 93% | viability at 0.07813 µM (HS03 cells (human MD-SC)): 97% | viability at 0.15625 µM (HS03 cells (human MD-SC)): 94% | viability at 0.3125 µM (HS03 cells (human MD-SC)): 89% | viability at 0.625 µM (HS03 cells (human MD-SC)): 86% | viability at 1.25 µM (HS03 cells (human MD-SC)): 79% | viability at 2.5 µM (HS03 cells (human MD-SC)): 68% | viability at 5 µM (HS03 cells (human MD-SC)): 72% | viability at 10 µM (HS03 cells (human MD-SC)): 77% | viability at 0.03906 µM (MS01 cells (mouse MD-SC)): 81% | viability at 0.07813 µM (MS01 cells (mouse MD-SC)): 78% | viability at 0.15625 µM (MS01 cells (mouse MD-SC)): 70% | viability at 0.3125 µM (MS01 cells (mouse MD-SC)): 65% | viability at 0.625 µM (MS01 cells (mouse MD-SC)): 65% | viability at 1.25 µM (MS01 cells (mouse MD-SC)): 54% | viability at 2.5 µM (MS01 cells (mouse MD-SC)): 53% | viability at 5 µM (MS01 cells (mouse MD-SC)): 50% | viability at 10 µM (MS01 cells (mouse MD-SC)): 55% | penetration of blood-nerve barrier / detection in intact nerve ([1]; single agent): penetrated the normal blood-nerve barrier | confluency [4]: significantly reduced confluency | CC-3/7 signal (mouse MD-SCs (MS01)): high CC-3/7 signal | confluency (mouse MD-SCs (MS01)): low confluency | CC-3, Bcl-2 and Bcl-x protein levels (HS02 cells): no difference | XIAP protein level (HS02 cells): significant increase | CC-3 protein level (MS01 cells): significant increase | anti-apoptotic proteins Bcl-2, Bcl-x and XIAP (MS01 cells): significant decrease | growth inhibition (glioblastoma xenografts): 98% | growth inhibition [5]: 80% | tolerability [6]: well tolerated | dose-limiting toxicity [7]: limited by toxicity | progression-free survival [7]: did not significantly improve progression-free survival | suppression of tumor cell proliferation (luminal B breast cancer): significantly increased suppression of tumor cell proliferation | tolerability and efficacy [8]: limited tolerability and efficacy

Compound: COc1ncc(-c2ccc3nccc(-c4ccnnc4)c3c2)cc1NS(=O)(=O)c1ccc(F)cc1F [omipalisib]
EC50 (human MD-SCs): 2 nM
